This is an account of results in patent publication EP4566596A1, “ANTI-HBV AGENT” (RIKEN, priority 2022, dated 2024).

The subject of one series is HBV DNA from Hep2.2.15.7. In words: Anti-HBV activity using hepatitis B virus-producing cultured cells (HBV DNA in culture medium, qPCR). It is filed as cell-based. The note with it: 144 h, Hep2.2.15.7 cells, HBV DNA in culture medium after 6 days. How it is done:
Hep2.2.15.7 cells were spread in a 96-well plate (manufactured by TPP) at a density of 1 × 10^5 cells/well and cultured at 37°C and 5% CO2 using a culture medium containing DMEM/F12-GlutaMAX (manufactured by Thermo Fisher Scientific Inc.), 10% fetal bovine serum, 100 U/ml penicillin, 100 µg/ml streptomycin (manufactured by Thermo Fisher Scientific Inc.), and 5 µg/ml insulin (manufactured by Wako Pure Chemical). A test compound was added to the culture, and cells in three wells per condition were cultured. After 3 days, replacement with a medium containing the test compound was performed. After 6 days, cell viability was determined by quantitatively measuring intracellular mitochondrial activity. This was performed by measuring absorbance at 490 nm using Cell Proliferation Kit II (XTT) (manufactured by Roche) and a plate reader, EnSight (manufactured by PerkinElmer). At the same time, HBV-derived DNA was extracted and purified from the cell culture medium using Agencourt Genfind v2 (manufactured by Beckman-Coulter). […].
On the technique in general: In qPCR the cycle at which signal appears reflects the starting amount.

Another series relates to cccDNA. Description: Effect of suppressing cccDNA in HBV-infected PXB cells (qPCR). Format: cell-based, HBV genotype C. The note with it: 7 days treatment, FIG. 3. The method, then:
Fresh human hepatocytes derived from PXB mice (PXB cells; manufactured by PhoenixBio Co., Ltd.) were spread in a collagen-coated 96-well plate (manufactured by FALCON) at a density of 0.7 × 10^5 cells/well, and cultured for 7 days using a dHCGM medium (manufactured in house) at 37°C and 5% CO2. HBV genotype C (manufactured by PhoenixBio Co., Ltd.) was added to the culture medium together with 4% PEG 8000 at a final density of 3.5 × 10^5 copies/well, and the medium was replaced after 1 day, and every third or fourth day thereafter. A test compound was added after 28 days, and cells in three wells per condition were cultured. Then, replacement with a medium containing the test compound was also performed after 3 or 4 days, and after 7 days, DNA was extracted and purified from the cells using Agencourt DNAdvance (manufactured by Beckman-Coulter). […]

Series [1] is classed as in vitro ADME, human. How it is done:
(§1) Then, 50 µL of a NADPH regeneration system (85 mM D-glucose-6-phosphate, 10 mM β-nicotinamide adenine dinucleotide phosphate, oxidized form, and 10 U/mL glucose-6-phosphate dehydrogenase, all manufactured by Oriental Yeast Co., Ltd.) was added and mixed, and incubation was started. The incubation starting point was set to 0 minutes of reaction. At 0, 30, and 60 minutes of reaction, a 50-µL fraction of the reaction solution was collected into 200 µL of an ice-cooled 0.5 µM propranolol/acetonitrile solution, and the reaction was stopped. The obtained preparative solution was transferred to a protein removal plate (manufactured by Phenomenex), and after suction filtration through a manifold for 96-well plates, the filtrate was collected into a 96-well plate for collection. 100 µL of the collected filtrate was transferred to a 96-well plate and dried in a nitrogen-blowing high-speed parallel concentrator (Turbo Vap 96, manufactured by Biotage). After dissolving the dried sample with the initial mobile phase, the target compound was quantified by liquid chromatography-tandem mass spectrometry (LC-MS/MS). […] As technical replicates, the residual rate was calculated in two independent series for each compound to be evaluated for each animal species.
(§2) The configuration of LC-MS/MS is as follows: high-performance liquid chromatography: Nexera X2 UPLC system (manufactured by Shimadzu), column: ACQUITY UPLC BEH C18 Column, 130A, 1.7 µm, 2.1 ×× 50 mm (manufactured by Waters), guard column: ACQUITY UPLC BEH C18 VanGuard Column, 130A, 1.7 µm, 2.1 ×× 50 mm (manufactured by Waters), mobile phase A: 0.1% aqueous formic acid solution/acetonitrile (9:1, v/v), mobile phase B: 0.1% aqueous formic acid solution/acetonitrile (1:9, v/v), gradient conditions: 0 to 1 min; 30% B, 1 to 1.5 min; 30 to 100% B, 1.5 to 3.5 min; 100% B, and 3.5 to 5 min; 30% B, and mass spectrometer: QTRAP 4500 (manufactured by AB Sciex) were used, a measurement target compound was ionized using an ESI method, and target ions were measured by multiple reaction monitoring. […]

Series [2] in a line: Mouse blood drug concentrations after oral administration (LC-MS/MS). The note with it: ICR mice, plasma; for half-life: mouse, read-out: Elimination half-life. Format: in vivo, mice (ICR strain). How it is done: A compound was dissolved in a mixture of ethanol and polysorbate 80 (1:1) to make 10 mg/mL, and the resulting mixture was diluted with saline to 1 mg/mL and orally administered to mice (ICR strain, males, 6-10 weeks old) using a sonde. Blood was collected from the tail vein at 0.25, 0.5, 1, 2, 4, and 7 hours after administration, and plasma was obtained. An internal standard (ritonavir) was added to 10 µL of plasma, and a deproteinized sample was used for measurement. The measurement was performed according to a liquid chromatography-tandem mass spectrometry method using a Shimadzu LCMS-8050 system. The analytical conditions were as follows. A COSMOSIL 3C18-MS-II (2.0 ID × 50 mm; manufactured by Nacalai Tesque, Inc.) column was used. The column temperature was 40°C, and the autosampler temperature was 4°C. The mobile phase was a combination of Phase A: water/acetonitrile = 9/1 (v/v) and Phase B: acetonitrile, and the flow rate was 0.6 mL/min. 2 µL of the sample was injected. The gradient elution conditions were 0 to 0.9 min, 5% B; 0.9 to 2.1 min, 5 to 95% B; 2.1 to 5.5 min, 95% B; 5.5 to 5.51 min, 95 to 5% B; and 5.51 to 6.0 min, 5% B. The cleaning solution used was an isopropanol/methanol/acetonitrile/water = 1/1/1/1 (v/v/v/v, %) solution containing 0.1% formic acid. The ionization method was ESI, and the collected data was processed using LabSolutions software (Ver. 5.97 SP1, Shimadzu Corporation).

The subject of the next series is pgRNA in PXB cells. Description: Anti-HBV activity using hepatitis B virus-infected primary cultured human hepatocytes (pgRNA, qPCR). Format: cell-based. The settings on record: 7 days treatment; for effect of suppressing pgRNA: FIG. 3; for pIC50: Hepatitis B virus, Hepatocyte, compound added after 28 days.
Series [3] is classed as in vitro ADME, mouse. The method, then:
as §1, §2

The format of series [4] is in vitro ADME, rat. How it is done: as §1, §2
Another series has as its system HBV genotype C. In words: Anti-HBV activity in hepatitis B virus-infected human hepatocyte chimeric mice (serum HBV DNA). Format: in vivo, Human hepatocyte-transplanted chimeric mice (PXB mice). The note with it: 10 mg/kg orally twice daily for 21 days, FIG. 4.
In the next series the test system is HBc (1-149). Description: Capsid formation mechanism: gel filtration and electron microscopy of recombinant HBc (1-149). Format: biochemical, HBV genotype C. How it is done:
An expression plasmid in which the ubiquitin-like protein SUMO serving as a tag was fused to the sequence of the association domain (1-149) of HBc of genotype C was prepared and introduced into the Escherichia coli KRX strain, and a recombinant protein was expressed and purified. After the recombinant HBc (1-149) was cleaved with a SUMO protease to remove the tag, the dimer peak was separated by gel filtration and used for subsequent analyses. […]
This behavior is similar to that of the compound CBT-078. […] A fraction was collected from the elution peak at the position corresponding to the capsid, and a negatively stained image was captured using an electron microscope.

The target of a further series is HBc T33N (Hepatitis B virus genotype D subtype ayw, UniProt P03146, T33N). In words: HBV replication assay in HeLa cells, HBc T33N mutant. Format: cell-based.
In another series the test system is HBV. In words: Effect of suppressing HBsAg, HBeAg and pgRNA in primary cultured human hepatocytes infected with HBV. It is filed as cell-based. The settings on record: concentrations of 0.01 to 100 mM, FIG. 2. The method, then:
Primary cultured human hepatocytes infected with HBV were treated with the compound CBT-289 or Entecavir (ETV) at concentrations of […], and the HBsAg and HBeAg levels in the medium and the pgRNAlevel in the cells were measured.

Usually pIC50 stands for −log10 of the IC50, conventionally taken in molar units. A low value points to a large IC50. By half-life is commonly meant the time needed for the level to fall by half in the phase considered.

pIC50: −log10 of the molar value. Where “and” joins values, the source holds several entries; their conditions need not be identical. Identical values can stand only once. Like-named read-outs stand apart in the source and are kept apart here.

HBc T33N, sequence (P03146 whole entry T33N, looked up): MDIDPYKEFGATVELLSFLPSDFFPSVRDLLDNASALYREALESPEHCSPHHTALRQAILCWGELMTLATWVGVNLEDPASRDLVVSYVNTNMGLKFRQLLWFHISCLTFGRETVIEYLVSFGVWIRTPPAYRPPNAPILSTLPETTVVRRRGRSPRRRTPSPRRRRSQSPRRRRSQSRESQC

Regarding `Cc1ccccc1NC(=O)c1cccc(C(=O)Nc2ccc(F)cc2)c1F` [CBT-078, reference compound], the pIC50 in the series with HBV DNA from Hep2.2.15.7 was 6.57. Also, the “effect of suppressing cccDNA” value with cccDNA is given as “did not have the effect of suppressing pgRNA or cccDNA”. Also, the residual rate was 100% in series [1] (Human liver microsomes, 0 min (baseline)); 77% in series [1] (Human liver microsomes, 30 min); 60% and 58% in series [1] (Human liver microsomes, 60 min); 100% in [3] (Mouse liver microsomes, 0 min (baseline)); 6% in series [3] (Mouse liver microsomes, 30 min); 0% in series [3] (Mouse liver microsomes, 60 min). The residual rate in [4] (Rat liver microsomes, 0 min (baseline)) was 100%; in series [4] (Rat liver microsomes, 30 min) it was 53% and 52%; in series [4] (Rat liver microsomes, 60 min), 35% and 34%. Moreover, the Maximum blood concentration in series [2] worked out at 710 ng/mL. In addition, the “Time to reach maximum blood concentration” value in series [2] is 30 min. In [2] (in vivo), the half-life was 0.533 h. Further, the “effect of suppressing pgRNA” value in the series with pgRNA in PXB cells is “did not have the effect of suppressing pgRNA”.

With `Cc1cc(C#N)ccc1NC(=O)c1cccc(C(=O)Nc2ccc(F)cc2)c1F` [CBT-209], the pIC50 in the series with HBV DNA from Hep2.2.15.7 was 7.41. The residual rate in series [1] (human, 0 min, 1 µM, pH 7.4) is reported as 100%; in [3] (mouse, 0 min, 1 µM, pH 7.4), 100%; in series [4] (rat, 0 min, 1 µM, pH 7.4), 100%. Further, in [2], the Maximum blood concentration was 250 ng/mL. Moreover, the “Time to reach maximum blood concentration” value in series [2] is 120 min. The half-life in series [2] (male) was 13.8 h. The “HBV DNA level in the serum” value in the series with HBV genotype C is reported as “preferentially reduced compared with GLS4 or the vehicle”. The “association state of HBc (1-149) by gel filtration” value in the series on HBc (1-149) (11 µM HBc (1-149), 15 µM compound, overnight incubation at 4°C, FIG. 5) is recorded as “the elution peak shifted to the position corresponding to the capsid”. The “stability of the capsids formed” value with HBc (1-149) (7 days of incubation, gel filtration and electron microscope) was “stable even after 7 days of incubation”. The “antiviral activity against viruses with the HBc T33N mutation” value at HBc T33N was “have antiviral activity even against viruses with the HBc T33N mutation”.

In the series with HBV DNA from Hep2.2.15.7, `CCCCNC(=O)c1ccc(NC(=O)c2cccc(C(=O)Nc3ccc(F)cc3)c2F)c(C)c1` [CBT-289] showed a pIC50 of 7.13. Moreover, the “effect of suppressing cccDNA” value in the series with cccDNA was “suppressed cccDNA and pgRNA in a concentration-dependent manner”. In addition, in the series on pgRNA in PXB cells, the “effect of suppressing pgRNA” value is “suppressed cccDNA and pgRNA in a concentration-dependent manner”; the pIC50 was 5.61. In addition, in the series with HBV, the “HBeAg level in the medium” value is “suppressed HBsAg, HBeAg, and pgRNAin a concentration-dependent manner”; the “HBsAg level in the medium” value is “suppressed HBsAg, HBeAg, and pgRNAin a concentration-dependent manner”; the “pgRNA level in the cells” value was “suppressed HBsAg, HBeAg, and pgRNAin a concentration-dependent manner”.

As to `CCCNC(=O)c1ccc(NC(=O)c2cccc(C(=O)Nc3ccc(F)cc3)c2F)c(C)c1` [CBT-383], the pIC50 was 6.04 in the series with HBV DNA from Hep2.2.15.7 and 5.63 in the series with pgRNA in PXB cells.

For `CCNC(=O)c1ccc(NC(=O)c2cccc(C(=O)Nc3ccc(F)cc3)c2F)c(C)c1` [CBT-384], the pIC50 is 7.12 with HBV DNA from Hep2.2.15.7 and 4.78 in the series with pgRNA in PXB cells.

In the case of `Cc1cc(C(=O)NC(C)(C)C)ccc1NC(=O)c1cccc(C(=O)Nc2ccc(F)cc2)c1F` [CBT-385], the pIC50 with HBV DNA from Hep2.2.15.7 is 6.74; with pgRNA in PXB cells it was < 4.00.

`C=CCCNC(=O)c1ccc(NC(=O)c2cccc(C(=O)Nc3ccc(F)cc3)c2F)c(C)c1` [CBT-387]: the pIC50 in the series on HBV DNA from Hep2.2.15.7 is 7.39; in the series on pgRNA in PXB cells it was 5.47.

As for `CCCCCCNC(=O)c1ccc(NC(=O)c2cccc(C(=O)Nc3ccc(F)cc3)c2F)c(C)c1` [CBT-388], the pIC50 is 6.74 with HBV DNA from Hep2.2.15.7 and 5.34 in the series on pgRNA in PXB cells.

On to `CCCCCCCCCCNC(=O)c1ccc(NC(=O)c2cccc(C(=O)Nc3ccc(F)cc3)c2F)c(C)c1` [CBT-389], for which the pIC50 in the series with HBV DNA from Hep2.2.15.7 was 6.33; in the series on pgRNA in PXB cells, 4.00.

With `Cc1cc(C(=O)NCCC(C)C)ccc1NC(=O)c1cccc(C(=O)Nc2ccc(F)cc2)c1F` [CBT-390], the negative-log IC50 (pIC50) in the series on HBV DNA from Hep2.2.15.7 is 7.21; in the series on pgRNA in PXB cells, 6.14.

Consider `CCC[C@@H](C)NC(=O)c1ccc(NC(=O)c2cccc(C(=O)Nc3ccc(F)cc3)c2F)c(C)c1` [CBT-391], for which the pIC50 with HBV DNA from Hep2.2.15.7 was 7.02; with pgRNA in PXB cells, 5.61.

On to `C=C1[C@H](CO)[C@@H](O)C[C@@H]1n1cnc2c(=O)[nH]c(N)nc21` [ETV, Entecavir, reference compound], for which, in the series on HBV, the “HBeAg level in the medium” value is recorded as “did not suppress them”, the “HBsAg level in the medium” value is “did not suppress them” and the “pgRNA level in the cells” value is recorded as “did not suppress them”.
